Assay results: the NIST ThermoML archive (doi:10.1016/j.jct.2005.01.002)
Numbers after ± are expanded uncertainties.

Legend:
[1] = xn = mol fraction of the nth substance listed; conditions: 101 kPa, Liquid
[2] = 101.33 kPa, Liquid

CCOCC [diethyl ether] + CN(C)C=O
[1], 298.15 K
Conditions | mass density [kg/m3]
x2 = 0.0575 | 720.7 ± 0.65
x2 = 0.1033 | 730.11 ± 0.63
x2 = 0.1606 | 742.64 ± 0.61
x2 = 0.2076 | 752.93 ± 0.59
x2 = 0.2524 | 762.76 ± 0.57
x2 = 0.2979 | 772.93 ± 0.56
x2 = 0.3683 | 788.85 ± 0.53
x2 = 0.4058 | 797.64 ± 0.52
x2 = 0.4414 | 805.85 ± 0.5
x2 = 0.4932 | 818.09 ± 0.48
x2 = 0.5094 | 821.95 ± 0.48
x2 = 0.53 | 826.82 ± 0.47
x2 = 0.5595 | 833.95 ± 0.45
x2 = 0.6229 | 849.26 ± 0.42
x2 = 0.643 | 854.21 ± 0.41
x2 = 0.717 | 872.52 ± 0.37
x2 = 0.7584 | 882.84 ± 0.35
x2 = 0.8124 | 896.81 ± 0.33
x2 = 0.8523 | 906.61 ± 0.31
x2 = 0.9295 | 926.56 ± 0.27
x2 = 0.9655 | 936.09 ± 0.25

CC(C)OC(C)C [diisopropyl ether]
[2]
Conditions | mass density [kg/m3]
298.15 K | 718.51 ± 0.66
313.15 K | 702.59 ± 0.68
328.15 K | 686.2 ± 0.7

CCOCC [diethyl ether]
Conditions | mass density [kg/m3]
[2], 298.15 K | 707.79 ± 0.68

CCCOCCC [dipropyl ether]
[2]
Conditions | mass density [kg/m3]
298.15 K | 741.94 ± 0.64
313.15 K | 727.87 ± 0.66
328.15 K | 713.73 ± 0.67
343.15 K | 699.61 ± 0.69
358.15 K | 684.92 ± 0.7

CCCCCOCCCCC [dipentyl ether]
[2]
Conditions | mass density [kg/m3]
298.15 K | 778.96 ± 0.73
313.15 K | 768.65 ± 0.75
328.15 K | 756.32 ± 0.77
343.15 K | 743.97 ± 0.79
358.15 K | 731.37 ± 0.81

CC(C)OC(C)C [diisopropyl ether] + CN(C)C=O
mass density [kg/m3], [1]
Conditions | 298.15 K | 313.15 K | 328.15 K
x2 = 0.0551 | 726.89 ± 0.64 | 711.08 ± 0.66 | 694.81 ± 0.67
x2 = 0.0998 | 733.84 ± 0.63 | 718.04 ± 0.64 | 701.68 ± 0.66
x2 = 0.1567 | 742.64 ± 0.61 | 726.81 ± 0.63 | 710.25 ± 0.64
x2 = 0.2133 | 751.81 ± 0.59 | 736.08 ± 0.61 | 719.61 ± 0.63
x2 = 0.2581 | 759.64 ± 0.58 | 743.93 ± 0.59 | 727.41 ± 0.61
x2 = 0.3049 | 767.92 ± 0.56 | 752.25 ± 0.58 | 735.75 ± 0.6
x2 = 0.3548 | 777.09 ± 0.54 | 761.49 ± 0.56 | 744.95 ± 0.58
x2 = 0.4003 | 785.84 ± 0.53 | 770.29 ± 0.55 | 753.71 ± 0.56
x2 = 0.4401 | 793.67 ± 0.51 | 778.18 ± 0.53 | 761.59 ± 0.55
x2 = 0.4868 | 803.29 ± 0.5 | 787.92 ± 0.52 | 771.3 ± 0.54
x2 = 0.5049 | 807.13 ± 0.49 | 791.8 ± 0.51 | 775.18 ± 0.53
x2 = 0.5285 | 812.21 ± 0.48 | 796.95 ± 0.5 | 780.34 ± 0.52
x2 = 0.5548 | 818.02 ± 0.47 | 802.83 ± 0.49 | 786.22 ± 0.51
x2 = 0.6182 | 832.62 ± 0.44 | 817.65 ± 0.46 | 801.09 ± 0.48
x2 = 0.653 | 840.97 ± 0.42 | 826.05 ± 0.44 | 809.51 ± 0.46
x2 = 0.7137 | 856.34 ± 0.39 | 841.67 ± 0.41 | 825.18 ± 0.43
x2 = 0.7611 | 869.01 ± 0.37 | 854.62 ± 0.39 | 838.24 ± 0.41
x2 = 0.801 | 880.32 ± 0.35 | 866.12 ± 0.37 | 849.8 ± 0.39
x2 = 0.8447 | 893.01 ± 0.32 | 879.09 ± 0.34 | 862.93 ± 0.36
x2 = 0.9027 | 911.02 ± 0.29 | 897.56 ± 0.31 | 881.59 ± 0.33
x2 = 0.9502 | 926.7 ± 0.26 | 913.74 ± 0.28 | 897.98 ± 0.3

CN(C)C=O [dimethylformamide]
[2]
Conditions | mass density [kg/m3]
298.15 K | 943.85 ± 0.23
313.15 K | 930.98 ± 0.25
328.15 K | 915.07 ± 0.27
343.15 K | 900.41 ± 0.29
358.15 K | 885.68 ± 0.32
